From ChEMBL document CHEMBL4130451, “Design and Synthesis of N-Aryl Phenoxyethoxy Pyridinones as Highly Selective and CNS Penetrant mGlu3 NAMs” (ACS Med Chem Lett, 2017)
Active and inactive are the calls of the source.

Tests used:
[1] = biological target: Estrogen receptor (Homo sapiens) (UniProt P03372); experiment: Inhibition of human ERalpha receptor at 10 uM relative to control
[2] = biological target: Glucocorticoid receptor (Homo sapiens) (UniProt P04150); experiment: Inhibition of human glucocorticoid receptor at 10 uM relative to control
Glucocorticoid receptor (Homo sapiens), sequence (P04150 whole entry): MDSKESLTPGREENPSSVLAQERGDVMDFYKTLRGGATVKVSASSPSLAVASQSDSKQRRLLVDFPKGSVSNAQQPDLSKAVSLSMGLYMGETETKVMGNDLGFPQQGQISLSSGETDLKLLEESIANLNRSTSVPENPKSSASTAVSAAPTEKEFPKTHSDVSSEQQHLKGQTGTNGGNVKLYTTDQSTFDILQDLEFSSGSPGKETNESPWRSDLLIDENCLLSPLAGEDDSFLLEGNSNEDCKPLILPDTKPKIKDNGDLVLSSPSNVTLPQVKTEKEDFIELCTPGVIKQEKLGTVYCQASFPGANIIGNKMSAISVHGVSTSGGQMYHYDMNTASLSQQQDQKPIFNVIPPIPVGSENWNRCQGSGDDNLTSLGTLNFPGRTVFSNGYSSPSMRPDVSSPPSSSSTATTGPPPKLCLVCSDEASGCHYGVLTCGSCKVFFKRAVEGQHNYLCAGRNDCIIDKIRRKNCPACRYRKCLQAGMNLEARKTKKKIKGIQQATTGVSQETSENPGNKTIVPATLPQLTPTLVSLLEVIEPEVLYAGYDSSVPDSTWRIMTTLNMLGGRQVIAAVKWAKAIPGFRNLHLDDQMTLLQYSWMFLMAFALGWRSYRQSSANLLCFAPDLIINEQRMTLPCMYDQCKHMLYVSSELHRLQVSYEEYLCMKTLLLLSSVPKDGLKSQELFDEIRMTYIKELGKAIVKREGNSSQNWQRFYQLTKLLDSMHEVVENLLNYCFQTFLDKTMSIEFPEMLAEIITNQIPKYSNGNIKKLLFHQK

[3] = biological target: hERG (KCNH2) (Homo sapiens, UniProt Q12809); experiment: Inhibition of human ERG at 10 uM relative to control
[4] = biological target: Acetylcholine receptor subunit alpha (Homo sapiens) (UniProt P02708); experiment: Inhibition of human alpha1 nAChR bungarotoxin site at 10 uM relative to control
[5] = biological target: B1 bradykinin receptor (Homo sapiens) (UniProt P46663); experiment: Inhibition of human bradykinin B1 receptor at 10 uM relative to control
[6] = biological target: D(3) dopamine receptor (Homo sapiens) (UniProt P35462); experiment: Inhibition of human dopamine D3 receptor at 10 uM relative to control
D(3) dopamine receptor (Homo sapiens), sequence (P35462 whole entry): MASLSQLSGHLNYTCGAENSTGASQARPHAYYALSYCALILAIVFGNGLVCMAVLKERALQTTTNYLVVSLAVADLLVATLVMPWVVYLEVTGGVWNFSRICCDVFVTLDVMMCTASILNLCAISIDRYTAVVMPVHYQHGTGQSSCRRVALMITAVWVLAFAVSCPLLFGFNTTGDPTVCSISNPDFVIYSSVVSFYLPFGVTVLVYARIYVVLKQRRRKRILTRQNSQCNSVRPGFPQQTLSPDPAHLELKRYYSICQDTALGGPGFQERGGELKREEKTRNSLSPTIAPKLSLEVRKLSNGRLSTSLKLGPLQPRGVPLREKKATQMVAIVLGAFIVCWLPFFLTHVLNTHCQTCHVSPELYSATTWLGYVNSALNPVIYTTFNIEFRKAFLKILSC

[7] = biological target: Cytochrome P450 3A4 (Homo sapiens, UniProt P08684); experiment: Inhibition of CYP3A4 in human liver microsomes using midazolam as substrate after 15 mins in presence of NADPH by LC/MS/MS analysis; assay type: ADME
[8] = biological target: Metabotropic glutamate receptor 4 (Rattus norvegicus) (UniProt P31423); experiment: Negative allosteric modulation of rat mGlu4 receptor expressed in HEK/GIRK cells assessed as inhibition of glutamate induced-calcium mobilization preincubated for 2.3 mins followed by glutamate addition measured for 2.6 mins by Fluo-4 AM dye based fluorescence assay; assay type: functional, cell-based
Metabotropic glutamate receptor 4 (Rattus norvegicus), sequence (P31423 whole entry): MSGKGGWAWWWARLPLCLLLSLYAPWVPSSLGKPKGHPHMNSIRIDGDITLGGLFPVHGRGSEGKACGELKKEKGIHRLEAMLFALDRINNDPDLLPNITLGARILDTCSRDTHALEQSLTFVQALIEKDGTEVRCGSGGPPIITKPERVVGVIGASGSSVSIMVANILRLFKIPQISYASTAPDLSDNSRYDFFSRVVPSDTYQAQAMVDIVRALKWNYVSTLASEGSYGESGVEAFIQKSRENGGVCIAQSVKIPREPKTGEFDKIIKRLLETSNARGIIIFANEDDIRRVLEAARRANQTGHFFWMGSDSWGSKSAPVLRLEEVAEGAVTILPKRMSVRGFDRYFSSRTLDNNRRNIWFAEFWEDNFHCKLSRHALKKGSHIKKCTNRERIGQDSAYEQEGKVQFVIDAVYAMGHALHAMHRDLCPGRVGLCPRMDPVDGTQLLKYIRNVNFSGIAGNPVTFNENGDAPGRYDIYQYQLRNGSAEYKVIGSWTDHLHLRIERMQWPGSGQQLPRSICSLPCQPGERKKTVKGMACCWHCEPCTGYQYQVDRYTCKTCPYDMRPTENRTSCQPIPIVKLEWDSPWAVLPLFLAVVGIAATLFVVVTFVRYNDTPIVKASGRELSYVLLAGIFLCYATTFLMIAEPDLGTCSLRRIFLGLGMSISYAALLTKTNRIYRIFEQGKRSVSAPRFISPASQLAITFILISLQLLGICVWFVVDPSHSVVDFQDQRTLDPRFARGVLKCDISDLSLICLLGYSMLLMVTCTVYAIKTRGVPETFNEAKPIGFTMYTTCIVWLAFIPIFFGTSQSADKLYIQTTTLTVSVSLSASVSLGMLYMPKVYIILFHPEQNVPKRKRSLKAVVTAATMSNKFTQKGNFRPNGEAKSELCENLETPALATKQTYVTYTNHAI

[9] = species: Homo sapiens; experiment: Inhibition of human dopamine D4.2 receptor at 10 uM relative to control
[10] = Brain to plasma partition coefficient, Kp of the compound in rat; assay type: ADME
[11] = biological target: 5-hydroxytryptamine receptor 1A (Homo sapiens) (UniProt P08908); experiment: Inhibition of human 5-HT1A receptor at 10 uM relative to control
[12] = biological target: Metabotropic glutamate receptor 6 (Homo sapiens) (UniProt O15303); experiment: Negative allosteric modulation of human mGlu6 receptor expressed in HEK/GIRK cells assessed as inhibition of glutamate induced-calcium mobilization preincubated for 2.3 mins followed by glutamate addition measured for 2.6 mins by Fluo-4 AM dye based fluorescence assay; assay type: functional, cell-based
[13] = biological target: Sodium-dependent dopamine transporter (Homo sapiens) (UniProt Q01959); experiment: Inhibition of human DAT at 10 uM relative to control
Sodium-dependent dopamine transporter (Homo sapiens), sequence (Q01959 whole entry): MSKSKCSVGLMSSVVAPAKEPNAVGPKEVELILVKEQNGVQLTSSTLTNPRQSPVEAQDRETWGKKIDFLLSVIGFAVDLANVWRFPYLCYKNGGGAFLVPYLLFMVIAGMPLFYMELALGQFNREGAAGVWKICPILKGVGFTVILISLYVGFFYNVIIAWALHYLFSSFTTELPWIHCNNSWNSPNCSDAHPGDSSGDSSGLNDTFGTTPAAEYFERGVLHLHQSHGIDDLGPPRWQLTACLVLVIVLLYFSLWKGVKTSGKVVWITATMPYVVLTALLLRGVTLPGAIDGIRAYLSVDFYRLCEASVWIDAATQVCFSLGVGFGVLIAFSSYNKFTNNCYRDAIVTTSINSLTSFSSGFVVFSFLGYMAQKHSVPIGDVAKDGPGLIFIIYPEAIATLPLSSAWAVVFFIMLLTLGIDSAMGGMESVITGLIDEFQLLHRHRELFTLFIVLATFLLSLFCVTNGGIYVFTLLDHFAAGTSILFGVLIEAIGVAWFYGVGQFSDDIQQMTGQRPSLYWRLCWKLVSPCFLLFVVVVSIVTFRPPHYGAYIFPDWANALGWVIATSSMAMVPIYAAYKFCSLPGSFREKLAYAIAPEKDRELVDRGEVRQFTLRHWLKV

[14] = species: Rattus norvegicus; experiment: Inhibition of rat P2Y receptor at 10 uM relative to control
[15] = system: Mus musculus; experiment: Antidepressant activity in CD-1 mouse assessed as reduction in immobility time administered ip 15 mins prior to test measured for 6 mins by tail suspension test; assay type: functional; conditions: CD-1, ip, read-out: MED
[16] = species: Rattus norvegicus; experiment: Inhibition of rat central GABA-A receptor flunitrazepam site at 10 uM relative to control
[17] = biological target: Cysteinyl leukotriene receptor 1 (Homo sapiens) (UniProt Q9Y271); experiment: Inhibition of human cysteinyl cys leukotriene receptor 1 at 10 uM relative to control
Cysteinyl leukotriene receptor 1 (Homo sapiens), sequence (Q9Y271 whole entry): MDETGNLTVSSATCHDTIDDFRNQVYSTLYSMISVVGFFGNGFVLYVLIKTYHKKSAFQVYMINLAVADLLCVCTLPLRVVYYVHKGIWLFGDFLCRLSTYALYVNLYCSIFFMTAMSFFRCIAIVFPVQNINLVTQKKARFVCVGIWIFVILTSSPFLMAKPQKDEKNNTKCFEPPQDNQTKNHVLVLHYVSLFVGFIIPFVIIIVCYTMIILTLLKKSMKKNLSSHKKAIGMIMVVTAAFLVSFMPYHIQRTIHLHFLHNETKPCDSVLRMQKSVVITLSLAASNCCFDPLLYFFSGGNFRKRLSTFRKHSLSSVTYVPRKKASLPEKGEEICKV

[18] = biological target: Kappa-type opioid receptor (Homo sapiens) (UniProt P41145); experiment: Inhibition of human kappa opioid receptor at 10 uM relative to control
Kappa-type opioid receptor (Homo sapiens), sequence (P41145 whole entry): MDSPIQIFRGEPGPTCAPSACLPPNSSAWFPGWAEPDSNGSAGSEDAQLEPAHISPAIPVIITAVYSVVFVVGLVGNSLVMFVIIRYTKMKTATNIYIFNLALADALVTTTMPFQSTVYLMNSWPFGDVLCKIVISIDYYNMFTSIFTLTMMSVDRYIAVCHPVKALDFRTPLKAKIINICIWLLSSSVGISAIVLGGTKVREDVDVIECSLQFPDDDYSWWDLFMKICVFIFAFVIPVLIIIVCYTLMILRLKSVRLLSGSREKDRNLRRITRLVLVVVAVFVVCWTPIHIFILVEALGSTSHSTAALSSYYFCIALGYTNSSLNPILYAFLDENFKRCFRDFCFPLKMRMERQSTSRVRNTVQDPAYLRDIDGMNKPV

[19] = Unbound brain to plasma concentration ratio in mouse; assay type: ADME; conditions: read-out: K(p,uu,brain)
[20] = biological target: Prostaglandin E2 receptor EP4 subtype (Homo sapiens) (UniProt P35408); experiment: Inhibition of human EP4 receptor at 10 uM relative to control
[21] = Ratio of drug uptake in Harlan CD-1 mouse brain at 3 mg/kg, ip to IC50 for negative allosteric modulation of rat mGlu3 receptor expressed in TREX cells coexpressing Galpha15; assay type: ADME, organism-based; conditions: in vivo
[22] = Kinetic solubility of the compound in PBS at pH 7.4; assay type: physicochemical; conditions: read-out: Kinetic_solubility
[23] = species: Rattus norvegicus; experiment: Inhibition of central rat I2 receptor imidazoline binding site at 10 uM relative to control
[24] = biological target: Delta-type opioid receptor (Homo sapiens) (UniProt P41143); experiment: Inhibition of human delta 1 opioid receptor at 10 uM relative to control
[25] = species: Mesocricetus auratus; experiment: Inhibition of syrian hamster KATP at 10 uM relative to control
[26] = biological target: Glutamate NMDA receptor (Rattus norvegicus) (UniProt P35439+Q00959+Q00960+Q00961+Q62645+Q8VHN2+Q9R1M7); experiment: Inhibition of rat glutamate NMDA receptor glycine binding site at 10 uM relative to control; assay type: protein-complex assay
[27] = biological target: Alpha-1A adrenergic receptor (Rattus norvegicus) (UniProt P43140); experiment: Inhibition of rat adrenergic alpha 1A receptor at 10 uM relative to control
[28] = biological target: Cytochrome P450 2D6 (Homo sapiens, UniProt P10635); experiment: Inhibition of CYP2D6 in human liver microsomes using dextromethorphan as substrate after 15 mins in presence of NADPH by LC/MS/MS analysis; assay type: ADME
[29] = biological target: Beta-2 adrenergic receptor (Homo sapiens) (UniProt P07550); experiment: Inhibition of human adrenergic beta2 receptor at 10 uM relative to control
Beta-2 adrenergic receptor (Homo sapiens), sequence (P07550 whole entry, looked up): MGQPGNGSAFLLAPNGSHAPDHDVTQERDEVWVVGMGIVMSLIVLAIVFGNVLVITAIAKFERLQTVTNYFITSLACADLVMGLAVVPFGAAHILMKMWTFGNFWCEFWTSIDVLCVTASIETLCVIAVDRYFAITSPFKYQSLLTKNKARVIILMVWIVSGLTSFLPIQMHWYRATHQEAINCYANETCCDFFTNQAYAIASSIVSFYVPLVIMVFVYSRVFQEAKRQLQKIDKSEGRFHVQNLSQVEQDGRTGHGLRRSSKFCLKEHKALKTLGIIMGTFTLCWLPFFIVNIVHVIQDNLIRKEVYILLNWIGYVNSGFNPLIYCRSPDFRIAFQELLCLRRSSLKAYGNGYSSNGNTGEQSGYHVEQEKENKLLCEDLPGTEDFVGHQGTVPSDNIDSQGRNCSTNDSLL

[30] = biological target: Histamine H1 receptor (Homo sapiens) (UniProt P35367); experiment: Inhibition of human histamine H1 receptor at 10 uM relative to control
[31] = species: Mus musculus; experiment: Inhibition of mouse phorbol ester receptor at 10 uM relative to control
[32] = biological target: Muscarinic acetylcholine receptor M2 (Homo sapiens) (UniProt P08172); experiment: Inhibition of human muscarinic M2 receptor at 10 uM relative to control
Muscarinic acetylcholine receptor M2 (Homo sapiens), sequence (P08172 whole entry): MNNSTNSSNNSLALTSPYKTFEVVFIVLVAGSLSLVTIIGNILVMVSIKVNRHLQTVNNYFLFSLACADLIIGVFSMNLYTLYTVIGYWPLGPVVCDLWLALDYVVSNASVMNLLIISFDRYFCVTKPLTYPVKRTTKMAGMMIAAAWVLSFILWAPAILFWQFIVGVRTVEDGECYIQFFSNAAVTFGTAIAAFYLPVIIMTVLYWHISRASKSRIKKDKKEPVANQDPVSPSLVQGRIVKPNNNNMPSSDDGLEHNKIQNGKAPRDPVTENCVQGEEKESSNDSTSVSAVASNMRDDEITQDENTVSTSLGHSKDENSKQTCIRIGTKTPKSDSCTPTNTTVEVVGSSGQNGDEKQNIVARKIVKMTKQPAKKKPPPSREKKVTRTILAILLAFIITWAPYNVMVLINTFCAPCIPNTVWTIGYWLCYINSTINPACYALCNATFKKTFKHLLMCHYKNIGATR

[33] = species: Rattus norvegicus; experiment: Inhibition of rat GABA receptor at 10 uM relative to control
[34] = biological target: Mu-type opioid receptor (Homo sapiens) (UniProt P35372); experiment: Inhibition of human mu opioid receptor at 10 uM relative to control
[35] = Brain to plasma partition coefficient, Kp of the compound in mouse; assay type: ADME
[36] = biological target: Metabotropic glutamate receptor 3 (Rattus norvegicus) (UniProt P31422); experiment: Negative allosteric modulation of rat mGlu3 receptor expressed in TREX cells coexpressing Galpha15 assessed as inhibition of glutamate induced-calcium mobilization by measuring minimum glutamate response preincubated for 2.3 mins followed by glutamate addition measured for 2.6 mins by Fluo-4 AM dye based fluorescence assay relative to glutamate; assay type: functional, cell-based
[37] = biological target: Sodium-dependent serotonin transporter (Homo sapiens) (UniProt P31645); experiment: Inhibition of human SERT at 10 uM relative to control
[38] = biological target: Adenosine receptor A1 (Homo sapiens) (UniProt P30542); experiment: Inhibition of human adenosine A1 receptor at 10 uM relative to control
[39] = biological target: Adenosine receptor A2a (Homo sapiens) (UniProt P29274); experiment: Inhibition of human adenosine A2a receptor at 10 uM relative to control
[40] = biological target: Metabotropic glutamate receptor 7 (Rattus norvegicus) (UniProt P35400); experiment: Negative allosteric modulation of rat mGlu7 receptor expressed in HEK/GIRK cells assessed as inhibition of L-AP4 induced-calcium mobilization preincubated for 2.3 mins followed by L-AP4 addition measured for 2.6 mins by Fluo-4 AM dye based fluorescence assay; assay type: functional, cell-based
[41] = biological target: Epidermal growth factor receptor (Homo sapiens) (UniProt P00533); experiment: Inhibition of human EGF receptor at 10 uM relative to control

Estrogen receptor (Homo sapiens), sequence (P03372 whole entry): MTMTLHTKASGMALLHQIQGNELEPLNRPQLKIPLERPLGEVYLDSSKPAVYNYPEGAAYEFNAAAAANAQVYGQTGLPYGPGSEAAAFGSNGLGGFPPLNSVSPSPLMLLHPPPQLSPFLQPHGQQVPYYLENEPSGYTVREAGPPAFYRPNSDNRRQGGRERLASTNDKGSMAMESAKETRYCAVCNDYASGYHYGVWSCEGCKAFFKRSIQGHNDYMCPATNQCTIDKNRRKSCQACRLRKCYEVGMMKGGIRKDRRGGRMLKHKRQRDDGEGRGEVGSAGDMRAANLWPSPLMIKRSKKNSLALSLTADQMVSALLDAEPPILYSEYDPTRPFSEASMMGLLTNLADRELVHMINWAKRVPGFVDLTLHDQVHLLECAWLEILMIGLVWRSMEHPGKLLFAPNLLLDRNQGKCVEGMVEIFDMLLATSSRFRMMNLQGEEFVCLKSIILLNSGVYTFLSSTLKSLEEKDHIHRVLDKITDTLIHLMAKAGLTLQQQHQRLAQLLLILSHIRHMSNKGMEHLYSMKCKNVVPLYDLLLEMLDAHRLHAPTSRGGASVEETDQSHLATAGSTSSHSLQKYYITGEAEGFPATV

C[C@@H](COc1ccn(-c2ccc(F)cc2)c(=O)c1)Oc1ccccc1
> 30 µM: IC50 [7] | IC50 [28]
98 µM: solubility kinetic [22]
1.17: Kp [35]
inactive: inhibition [8] | inhibition [12] | inhibition [40]
1.15: Kp [10]
> 50%: inhibition [1] | inhibition [2] | inhibition at 10 µM [3] | inhibition [4] | inhibition [5] | inhibition [6] | inhibition [9] | inhibition [11] | inhibition [13] | inhibition [14] | inhibition [16] | inhibition [17] | inhibition [18] | inhibition [20] | inhibition [23] | inhibition [24] | inhibition [25] | inhibition [26] | inhibition [27] | inhibition [29] | inhibition [30] | inhibition [31] | inhibition [32] | inhibition [33] | inhibition [34] | inhibition [37] | inhibition [38] | inhibition [39] | inhibition [41]
5: Ratio [21]
3 mg/kg: minimal effective dose [15]
3.33%: Emin [36]
0.26: Kp uu [19]
